These results are taken from PMC3693459 (Nuclear medicine and biology, 2009).

For data set [1], the system named is aromatase. Particulars: cited from earlier work.
A short description of data set [2]: Measurement of free fraction in plasma. Particulars: baboon plasma, room temperature, 10 min incubation.
The subject of data set [3] is aromatase. Description: PET studies in baboon brain. Particulars: for brain penetration / uptake in amygdala and preoptic area (PET images): baboon brain; for brain penetration: at 2.5 min; for uptake in amygdala and preoptic area (PET images): images summed 15-90 min after injection.
For data set [4] the following is noted: for appearance of labeled metabolites in plasma: compared with N-1 (11C-1).
The next data set in a line: Measurement of log D. Particulars: 1-octanol / phosphate buffered saline pH 7.4.

Consider `Cn1nnc2ccc([C@@H](c3ccc(Cl)cc3)n3cncn3)cc21` [(R)-vorozole], for which the “activity of enantiomer at aromatase” value with aromatase [1] is “inactive”.

In the case of `[11CH3]n1nc2ccc([C@H](c3ccc(Cl)cc3)n3cncn3)cc2n1` [^11C-2], in data set [2], the “Percent unbound in plasma (n=2)” value was found to be 4.6%. Moreover, in the data set on aromatase [3], the brain penetration was 0.02-0.03 %ID/cc; the “uptake in amygdala and preoptic area (PET images)” value is “no specific uptake in amygdala and preoptic area”. Further, in data set [4] (baboon plasma), the “disappearance of the parent labeled compound from plasma” value is listed as “rapid rate of disappearance” and the “appearance of labeled metabolites in plasma” value is “very rapid appearance of labeled metabolites”. In “Measurement of log D”, the “Log D at pH 7.4 (n=4)” value worked out at 2.9.

Regarding `N#Cc1ccc(C(c2ccc(C#N)cc2)n2cncn2)cc1` [letrozole, reference compound], the “effect of pretreatment on [N-methyl-11C]vorozole (11C-1) accumulation in brain” value in the data set on aromatase [3] (baboon, blocking dose 0.1 mg/kg, 5 min prior, all brain regions examined) was “reduced”.

In the case of `[11CH3]n1nnc2cc(C(c3ccc(Cl)cc3)n3cncn3)ccc21` (centres unmarked) [^11C-3], in data set [2], the “Percent unbound in plasma (n=2)” value amounted to 8.1%. For the same molecule, in the data set on aromatase [3], the brain penetration is reported as 0.02-0.03 %ID/cc; the “uptake in amygdala and preoptic area (PET images)” value was “no specific uptake in amygdala and preoptic area”. Also, the “appearance of labeled metabolites in plasma” value in data set [4] (baboon plasma) is given as “very rapid appearance of labeled metabolites”. The “area under curve (AUC) in plasma normalized to the injected dose” value in data set [4] (baboon, over 90 minutes) is given as “similar”. Moreover, the pH-dependent lipophilicity (Log D) at pH 7.4 (n=4) in “Measurement of log D” turned out to be 2.5.

The term Log D denotes lipophilicity at a set pH, counting ionised and neutral species.
